Measurements published in PubChem BioAssay (NCI).
“And” between values parts separate entries of the source, which are not always exact repeats. Identical values can stand only once.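 Protocol summary: plate cells (96-well), add compound at 5 concentrations, incubate 48 h, interpolate endpoints linearly. At the GI50, growth is halved. Definition used: TGI = concentration required for complete inhibition of growth.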 Numbered stars: 1 amine (or outer) side, 2 acyl side, 3 side chain; on linkers, the order of the positions; unused ones are H or OH. Bridge positions count the residues as written; N and C are the ends. Square brackets hold non-standard residues; d marks the D form. Peptide text beside a SMILES is read from it. I, II: the chains in the order shown. Actinocin(1to9) = Cc1c2oc3c(C)ccc(C(=O)[*:2])c3nc-2c(C(=O)[*:1])c(N)c1=O; NMeY = CN[CH](Cc1ccc(O)cc1)C(=O)O; Sar = CNCC(=O)O

What was measured:
Test in all cases: NCI anticancer screen, dose series, 48 h
KM12 colon = test system: KM12 colon
UO-31 renal = test system: UO-31 renal
SK-MEL-5 melanoma = test system: SK-MEL-5 melanoma
HT29 colon = test system: HT29 colon
HCC-2998 colon = test system: HCC-2998 colon
SNB-19 CNS = test system: SNB-19 CNS
CCRF-CEM leukemia = test system: CCRF-CEM leukemia
EKVX NSCLC = test system: EKVX NSCLC
IGROV1 ovarian = test system: IGROV1 ovarian
RXF 393 renal = test system: RXF 393 renal

| Structure (SMILES) | GI50 (KM12 colon) [µM] | TGI (KM12 colon) [µM] | GI50 (UO-31 renal) [µM] | TGI (UO-31 renal) [µM] | GI50 (SK-MEL-5 melanoma) [µM] | TGI (SK-MEL-5 melanoma) [µM] | GI50 (HT29 colon) | TGI (HT29 colon) [µM] | GI50 (HCC-2998 colon) [µM] | GI50 (SNB-19 CNS) [µM] | TGI (SNB-19 CNS) | GI50 (CCRF-CEM leukemia) | TGI (CCRF-CEM leukemia) | GI50 (EKVX NSCLC) | TGI (EKVX NSCLC) | GI50 (IGROV1 ovarian) | TGI (IGROV1 ovarian) [µM] | TGI (HCC-2998 colon) [µM] | GI50 (RXF 393 renal) | TGI (RXF 393 renal) [µM] |
| --- | --- | --- | --- | --- | --- | --- | --- | --- | --- | --- | --- | --- | --- | --- | --- | --- | --- | --- | --- | --- |
| COC(=O)N[C@H]1CCc2c(Cl)c(OC)c(OC)c(OC)c2-c2ccc(SC)c(=O)cc21 | < 0.01 | 18.8 | < 0.0215 | 51.7 | < 0.01 | < 0.0127 | < 0.01 µM | > 94.8 | < 0.01 | < 0.01 | > 100 µM | < 0.01 µM | > 82.7 µM | < 0.01 µM | 96.9 µM | < 0.01 µM | > 52.5 | – | – | – |
| CCC[CH2][Sn]1([CH2]CCC)[S]CC[N]1S(=O)(=O)c1ccc(C)cc1 | 2.02 | 3.59 | 1.14 | 2.35 | 1.68 | 3.2 | 2.04 µM | 3.73 | 1.95 | 1.45 | 2.75 µM | – | – | – | – | 1.7 µM | 3.27 | 3.44 | – | – |
| CC(C)(C)OC(=O)N[C@@H](Cc1ccccc1)C(=O)N(Cc1ccccc1)C1(C(=O)NCc2ccccc2)CCN(Cc2ccccc2)CC1 | 4.12 | > 100 | 2.16 | > 100 | 1.73 | 3.29 | 2.16 µM | 6.82 | 4.54 | 5.27 | > 100 µM | 3.35 µM | > 100 µM | – | – | 5.7 µM | > 100 | > 100 | 3.12 µM | > 100 |
| C=C1C(OC(C)=O)CC(OC(C)=O)C2(C)C(OC(C)=O)C(OC(C)=O)C3=C(C)C(OC(=O)/C=C/c4ccccc4)CC(C(OC(C)=O)C12)C3(C)C (stereo unspecified) | – | > 100 | – | > 100 | – | > 100 | – | > 100 | – | – | > 100 µM | – | > 100 µM | – | – | – | > 100 | > 100 | – | > 100 |
| COCCNc1cncc(C(N)=O)c1 | – | > 100 | – | > 100 | – | > 100 | – | > 100 | – | – | > 100 µM | – | > 100 µM | – | > 100 µM | – | > 100 | > 100 | – | – |
| N#Cc1cc(S(=O)(=O)Nc2nc3ccccc3o2)c(SCc2ccccc2)cc1Cl | 20.3 | 40.7 | 20.4 | 39.2 | 17 | 31.9 | 29.1 µM | 83.6 | 19 | 20.9 | 56.1 µM | – | – | 18.4 µM | 42.7 µM | 22 µM | 54.8 | 34.3 | 23.9 µM | 53.1 |
| CCOC(=O)C1=C(C)NC(c2ccco2)=C(C#N)C1c1cccc([N+](=O)[O-])c1 (stereo unspecified) | 0.035 | 16 | 0.14 | 27.9 | – | 0.311 | 0.01 µM | 0.562 | 0.0558 | 0.0253 | – | 0.0186 µM | 32.4 µM | 0.0263 µM | 88.6 µM | 0.0157 µM | 3.28 | 0.159 | – | – |
| CO[C@@]1(c2ccccc2)O[C@H]2OCCC2[C@H]1c1ccc(Cl)cc1 (stereo partly specified) | – | > 100 | – | 90.4 | – | 33.1 | – | 50.6 | – | – | > 100 µM | – | – | – | 64.5 µM | – | > 100 | > 100 | – | 57.4 |
| COc1ccc2c(c1)CN1CCc3c(cc(OC)c(OC)c3OC)C1C2 (stereo unspecified) | – | – | – | > 100 | – | > 100 | – | > 100 | – | – | > 100 µM | – | > 100 µM | – | > 100 µM | – | > 100 | > 100 | – | > 100 |
| CC[C@H](C)[C@H](NC(=O)c1cccn1C)C(=O)N(C)[C@H](C[C@@H](OC(C)=O)c1nc(C(=O)N[C@@H](Cc2ccccc2)C[C@H](C)C(=O)OC)cs1)C(C)C | 0.106 | > 33.3 | 1.3 | > 33.3 | 0.103 | 0.736 | 0.205 µM | > 29.5 | 0.166 | 0.196 | > 33.3 µM | 0.138 µM | > 33.3 µM | 0.543 µM | > 33.3 µM | 0.228 µM | > 33.3 | > 33.3 | – | – |
| COC(C)C(O)(C(=O)OCC1=CCN2CCC(O)C12)C(C)(C)O (stereo unspecified) | – | > 100 | – | > 100 | – | > 100 | – | > 100 | – | – | > 100 µM | – | > 100 µM | – | > 100 µM | – | > 100 | > 100 | – | – |
| CC1=CCCC2C(C=O)(C1)CC(C)C2(CO)CC/C(=C/CO)CO (stereo unspecified) | – | > 100 | – | 82.8 | – | > 100 | – | > 100 | – | – | – | – | > 100 µM | – | > 100 µM | – | > 100 | > 100 | – | > 100 |
| COc1c(N2CCN(CN3C(=O)C(=Nc4ccc(S(=O)(=O)Nc5ncccn5)cc4)c4cc(Cl)ccc43)C(C)C2)c(F)cc2c(=O)c(C(=O)O)cn(C3CC3)c12 (stereo unspecified) | 9.61 | 26.8 | 37.5 | > 50 | 7.99 | 15.8 | 7.76 µM | > 50 | – | 15.7 | 49.4 µM | – | – | 18.9 µM | > 50 µM | 15.8 µM | > 50 | – | 8.3 µM | > 50 |
| CC(=O)[O-].N.N.N.N.[Co+3].[O-][Cl+3]([O-])([O-])[O-].[OH3+] | > 100 | > 100 | 84.6 | > 100 | > 100 | > 100 | > 100 µM | > 100 | > 100 | > 100 | > 100 µM | > 100 µM | > 100 µM | > 100 µM | > 100 µM | > 100 µM | > 100 | > 100 | – | – |
| CCOC(=O)/C=C/c1cccc(F)c1 | – | > 100 | – | > 100 | – | – | – | > 100 | – | – | > 100 µM | – | > 100 µM | – | > 100 µM | – | > 100 | > 100 | – | > 100 |
| COc1ccc(CC2C(=O)OC(C)C(NC(=O)c3c4nc5c(C(=O)NC6C(=O)NC(C(C)C)C(=O)N7CCCC7C(=O)N(C)CC(=O)N(C)C(Cc7ccc(OC)cc7)C(=O)OC6C)ccc(C)c5oc-4c(C)c(=O)c3N)C(=O)NC(C(C)C)C(=O)N3CCCC3C(=O)N(C)CC(=O)N2C)cc1 (stereo unspecified) (I: TVP[Sar][NMeY](Me) / II: TVP[Sar][NMeY](Me); ester I:1-I:C, II:1-II:C; linker I:N-II:N via Actinocin(1to9); configuration not given here) | – | – | – | – | – | – | < 0.01 µM and 0.00275 µM | – | – | – | 1.55 µM and > 0.804 µM | < 0.01 µM and 0.00103 µM | < 0.01 µM and 0.0625 µM | < 0.01 µM and 0.0696 µM | 0.0734 µM and > 0.617 µM | < 0.01 µM and 0.00327 µM | – | – | < 0.01 µM and 0.0306 µM | – |
